Measured values taken from patent publication US6528093B1, “Sustained-release preparation” (Takeda Chemical Industries, Ltd., priority 1992, dated 2003).

Assay: Dissolution of peptide acetate in a dichloromethane solution of lactic acid-glycolic acid copolymer
Format: physicochemical
Conditions: 8.0 g dichloromethane

SMILES: CCNC(=O)[C@@H]1CCCN1C(=O)[C@H](CCCNC(=N)N)NC(=O)[C@H](CC(C)C)NC(=O)[C@@H](CC(C)C)NC(=O)[C@H](Cc1ccc(O)cc1)NC(=O)[C@H](CO)NC(=O)[C@H](Cc1c[nH]c2ccccc12)NC(=O)[C@H](Cc1c[nH]cn1)NC(=O)[C@@H]1CCC(=O)N1 [Leuprorelin acetate]
- dissolution in copolymer/dichloromethane solution (400 mg in 3.6 g lactic acid/glycolic acid=75/25 copolymer of Example 12 (GPC Mw 10,000, end-group Mn 4,300)): clear homogeneous solution
- dissolution in copolymer/dichloromethane solution (400 mg in 3.6 g lactic acid/glycolic acid=75/25 copolymer, GPC Mw 18,000, end-group Mn 30,000 (RG752-15057)): could not be successfully dissolved
